Laboratory results taken from patent publication US20160237491A1, “METHODS FOR TREATING HCV” (AbbVie Inc., priority 2013, published 2016).

Test system: HCV
Assay: Viral load in treatment-naïve patients on Compound 1 and ritonavir for 3 days, then added peginterferon and ribavirin, grouped by IL28B PM02 methylation
Format: in vivo, human
Details: FIG. 3
Procedure: Twenty-one (21) treatment-naïve patients were included in the study. The patients received Compound 1 and ritonavir for three days followed by the addition of peginterferon and ribavirin for a total of 12 weeks of combination treatment. DNA samples obtained prior to the initiation of treatment were analyzed for methylation in a CpG island in the IL28B promoter corresponding to SEQ ID NO:2 (PM02). Subjects were grouped based on methylation level of PM02. Eleven (11) subjects had methylation values below 45% (diamonds). Ten (10) subjects had methylation values above 45% (squares). Viral load was assessed on Day 1 (“D1”), Day 2 (“D2”), Day 3 (“D3”), Day 4 (“D4”), Day 5 (“D5”), and Day 10 (“D10”) of treatment.

Cc1cnc(C(=O)N[C@H]2CCCCC/C=C\[C@@H]3C[C@@]3(C(=O)NS(=O)(=O)C3CC3)NC(=O)[C@@H]3C[C@@H](Oc4nc5ccccc5c5ccccc45)CN3C2=O)cn1 [Compound 1, (2R,6S,13aS,14aR,16aS,Z)—N-(cyclopropylsulfonyl)-6-(5-methylpyrazine-2-carboxamido)-5,16-dioxo-2-(phenanthridin-6-yloxy)-1,2,3,5,6,7,8,9,10,11,13a,14,14a,15,16,16a-hexadecahydrocyclopropa[e]pyrrolo[1,2-a][1,4]diazacyclopentadecine-14a-carboxamide]
reduction in viral load (after 10 days of treatment, Compound 1 + ritonavir 3 days, then peginterferon and ribavirin added, both groups (PM02 methylation below 45% n=11, above 45% n=10)): dramatic reduction in viral load | effect of PM02 methylation status on response (treatment-naïve patients, 10 days of treatment): does not affect response
